Values of other authors as cited in patent publication US20250000791A1, “OPHTHALMIC FORMULATION FOR PREVENTING AND/OR TREATING CATARACTS BY EYE DROP ADMINISTRATION” (CHENGDU RUIMU BIOPHARMACEUTICALS CO., LTD., priority 2021, published 2025).
Where two headings read alike, the source gives them in different places.

Key:
[1] = system: crystallins; conditions: lens fragments of cataract patients; lanosterol 0.20 mM, 25-HC 0.25 and 0.50 mM, 37° C., 72 h
[2] = system: animal cataract model
[3] = system: cataract nucleus obtained after cataract extraction; conditions: 25 mM lanosterol solution, 6 days
[4] = 0.5% LAN solution with 15% DMSO, 20% ethanol or polysorbate 80, injected into the vitreous body of rats

| SMILES | binding to crystallins / solving cataract [1] | effect on cataract ([2]; administration by eye drops alone) | effect on cataract ([2]; nanoparticles into the vitreous cavity once every 3 days combined with 25 mM eye drops six times a week, 6 weeks) | cataract clarity [3] | solubility in water | effect on lens opacity [4] | effect on the vitreous body [4] |
| --- | --- | --- | --- | --- | --- | --- | --- |
| C[C@H](CCCC(C)(C)O)[C@H]1CC[C@H]2[C@@H]3CC=C4C[C@@H](O)CC[C@]4(C)[C@H]3CC[C@]12C [25-hydroxycholesterol] | did not find that lanosterol or 25-hydroxycholesterol can bind to crystallins |  |  |  |  |  |  |
| CC(C)=CCC[C@@H](C)[C@H]1CC[C@@]2(C)C3=C(CC[C@]12C)[C@@]1(C)CC[C@H](O)C(C)(C)[C@@H]1CC3 [lanosterol] | did not find that lanosterol or 25-hydroxycholesterol can bind to crystallins | cannot treat cataracts | the cataract disappeared | no significant improvement in cataract clarity | low solubility in water | poses a risk of promoting lens opacity | causes vitreous turbidness |
